Test results from US5602153A, “Method of using 1-arylheteroarylalkyl substituted-1H-1,2,4-triazole compounds for treatment of a giaucoma disorder” (G.D. Searle & Co., priority 1993, dated 1997).

Tested on: pressor response to AII
Experiment: Assay D: In Vivo Intragastric Pressor Assay Response for AII Antagonists of Examples #1 and #3
Parameters: species or system rat (male Sprague-Dawley)
Settings: 3 mg/kg gavage
Experimental: Assay D: In Vivo Intragastric Pressor Assay Response for AII Antagonists of Examples #1 and #3
Male Sprague-Dawley rats weighing 225-300 grams were anesthetized with methohexital (30 mg/kg, i.p.) and catheters were implanted into the femoral artery and vein. The catheters were tunneled subcutaneously to exit dorsally, posterior to the head and between the scapulae. The catheters were filled with heparin (1000 units/ml of saline). The rats were returned to their cage and allowed regular rat chow and water ad libitum. After full recovery from surgery (3-4 days), rats were placed in Lucite holders and the arterial line was connected to a pressure transducer. Arterial pressure was recorded on a Gould polygraph (mmHg). Angiotensin II was administered as a 30 ng/kg bolus via the venous catheter delivered in a 50 μl volume with a 0.2 ml saline flush. The pressor response in mm Hg was measured by the difference from pre-injection arterial pressure to the maximum pressure achieved. The AII injection was repeated every 10 minutes until three consecutive injections yielded responses within 4 mmHg of each other. These three responses were then averaged and represented the control response to AII. The test compound was suspended in 0.5% methylcellulose in water and was administered by gavage. The volume administered was 2 ml/kg body weight. The standard dose was 3 mg/kg. […] The pressor response to AII was measured at each time point. The rats were then returned to their cage for future testing. A minimum of 3 days was allowed between tests. Percent inhibition was calculated for each time point following gavage by the following formula: [(Control Response-Response at time point)/Control Response]×100.

CCCCc1nc(CCCC)n(Cc2ccc(-c3ccccc3-c3nnn[nH]3)cn2)n1 [Example 1, 5-[2-[6-[(3,5-dibutyl-1H-1,2,4-triazol-1-yl)methyl]-3-pyridinyl]phenyl]-1H-tetrazole]
% Inhibition of Blood Pressure Elevation (Rat A, 0 min): 0%
% Inhibition of Blood Pressure Elevation (Rat A, 30 min): 14%
% Inhibition of Blood Pressure Elevation (Rat A, 45 min): 20%
% Inhibition of Blood Pressure Elevation (Rat A, 60 min): 40%
% Inhibition of Blood Pressure Elevation (Rat A, 75 min): 33%
% Inhibition of Blood Pressure Elevation (Rat A, 90 min): 37%
% Inhibition of Blood Pressure Elevation (Rat A, 120 min): 37%
% Inhibition of Blood Pressure Elevation (Rat A, 150 min): 40%
% Inhibition of Blood Pressure Elevation (Rat A, 180 min): 33%
% Inhibition of Blood Pressure Elevation (Rat B, 0 min): 0%
% Inhibition of Blood Pressure Elevation (Rat B, 30 min): 11%
% Inhibition of Blood Pressure Elevation (Rat B, 45 min): 15%
% Inhibition of Blood Pressure Elevation (Rat B, 60 min): 26%
% Inhibition of Blood Pressure Elevation (Rat B, 75 min): 23%
% Inhibition of Blood Pressure Elevation (Rat B, 90 min): 21%
% Inhibition of Blood Pressure Elevation (Rat B, 120 min): 23%
% Inhibition of Blood Pressure Elevation (Rat B, 150 min): 23%
% Inhibition of Blood Pressure Elevation (Rat B, 180 min): 13%
% Inhibition of Blood Pressure Elevation (Rat C, 0 min): 0%
% Inhibition of Blood Pressure Elevation (Rat C, 30 min): 16%
% Inhibition of Blood Pressure Elevation (Rat C, 45 min): 6%
% Inhibition of Blood Pressure Elevation (Rat C, 60 min): 29%
% Inhibition of Blood Pressure Elevation (Rat C, 75 min): 2%
% Inhibition of Blood Pressure Elevation (Rat C, 90 min): 10%
% Inhibition of Blood Pressure Elevation (Rat C, 120 min): 16%
% Inhibition of Blood Pressure Elevation (Rat C, 150 min): -4%
% Inhibition of Blood Pressure Elevation (Rat C, 180 min): 10%
% Inhibition of Blood Pressure Elevation (Rats A-C Mean ± SE, 30 min): 14 ± 2%
% Inhibition of Blood Pressure Elevation (Rats A-C Mean ± SE, 45 min): 14 ± 4%
% Inhibition of Blood Pressure Elevation (Rats A-C Mean ± SE, 60 min): 31 ± 4%
% Inhibition of Blood Pressure Elevation (Rats A-C Mean ± SE, 75 min): 20 ± 9%
% Inhibition of Blood Pressure Elevation (Rats A-C Mean ± SE, 90 min): 23 ± 8%
% Inhibition of Blood Pressure Elevation (Rats A-C Mean ± SE, 120 min): 26 ± 6%
% Inhibition of Blood Pressure Elevation (Rats A-C Mean ± SE, 150 min): 20 ± 13%
% Inhibition of Blood Pressure Elevation (Rats A-C Mean ± SE, 180 min): 19 ± 7%

CCCCc1nc(CCCC)n(Cc2ccc(-c3ccccc3-c3nnn[nH]3)nc2)n1 [Example 3, 5-[2-[5-[(3,5-dibutyl-1H-1,2,4-triazol-1-yl)methyl]-2-pyridinyl]phenyl]-1H-tetrazole]
% Inhibition of Blood Pressure Elevation (Rat A, 0 min): 0%
% Inhibition of Blood Pressure Elevation (Rat A, 30 min): 64%
% Inhibition of Blood Pressure Elevation (Rat A, 45 min): 67%
% Inhibition of Blood Pressure Elevation (Rat A, 60 min): 52%
% Inhibition of Blood Pressure Elevation (Rat A, 75 min): 45%
% Inhibition of Blood Pressure Elevation (Rat A, 90 min): 60%
% Inhibition of Blood Pressure Elevation (Rat A, 120 min): 41%
% Inhibition of Blood Pressure Elevation (Rat A, 150 min): 38%
% Inhibition of Blood Pressure Elevation (Rat A, 180 min): 24%
% Inhibition of Blood Pressure Elevation (Rat B, 0 min): 0%
% Inhibition of Blood Pressure Elevation (Rat B, 30 min): 55%
% Inhibition of Blood Pressure Elevation (Rat B, 45 min): 71%
% Inhibition of Blood Pressure Elevation (Rat B, 60 min): 55%
% Inhibition of Blood Pressure Elevation (Rat B, 75 min): 53%
% Inhibition of Blood Pressure Elevation (Rat B, 90 min): 50%
% Inhibition of Blood Pressure Elevation (Rat B, 120 min): 50%
% Inhibition of Blood Pressure Elevation (Rat B, 150 min): 53%
% Inhibition of Blood Pressure Elevation (Rat B, 180 min): 40%
% Inhibition of Blood Pressure Elevation (Rat C, 0 min): 0%
% Inhibition of Blood Pressure Elevation (Rat C, 30 min): 15%
% Inhibition of Blood Pressure Elevation (Rat C, 45 min): 12%
% Inhibition of Blood Pressure Elevation (Rat C, 60 min): 46%
% Inhibition of Blood Pressure Elevation (Rat C, 75 min): 27%
% Inhibition of Blood Pressure Elevation (Rat C, 90 min): 46%
% Inhibition of Blood Pressure Elevation (Rat C, 120 min): 53%
% Inhibition of Blood Pressure Elevation (Rat C, 150 min): 50%
% Inhibition of Blood Pressure Elevation (Rat C, 180 min): 62%
% Inhibition of Blood Pressure Elevation (Rat D, 0 min): 0%
% Inhibition of Blood Pressure Elevation (Rat D, 30 min): 21%
% Inhibition of Blood Pressure Elevation (Rat D, 45 min): 14%
% Inhibition of Blood Pressure Elevation (Rat D, 60 min): 36%
% Inhibition of Blood Pressure Elevation (Rat D, 75 min): 36%
% Inhibition of Blood Pressure Elevation (Rat D, 90 min): 26%
% Inhibition of Blood Pressure Elevation (Rat D, 120 min): 34%
% Inhibition of Blood Pressure Elevation (Rat D, 150 min): 29%
% Inhibition of Blood Pressure Elevation (Rat D, 180 min): 3%
% Inhibition of Blood Pressure Elevation (Rat E, 0 min): 0%
% Inhibition of Blood Pressure Elevation (Rat E, 30 min): 52%
% Inhibition of Blood Pressure Elevation (Rat E, 45 min): 43%
% Inhibition of Blood Pressure Elevation (Rat E, 60 min): 38%
% Inhibition of Blood Pressure Elevation (Rat E, 75 min): 43%
% Inhibition of Blood Pressure Elevation (Rat E, 90 min): 29%
% Inhibition of Blood Pressure Elevation (Rat E, 120 min): 29%
% Inhibition of Blood Pressure Elevation (Rat E, 150 min): 16%
% Inhibition of Blood Pressure Elevation (Rat E, 180 min): 16%
% Inhibition of Blood Pressure Elevation (Rats A-E Mean ± SE, 0 min): 0%
% Inhibition of Blood Pressure Elevation (Rats A-E Mean ± SE, 30 min): 42 ± 10%
% Inhibition of Blood Pressure Elevation (Rats A-E Mean ± SE, 45 min): 41 ± 13%
% Inhibition of Blood Pressure Elevation (Rats A-E Mean ± SE, 60 min): 46 ± 4%
% Inhibition of Blood Pressure Elevation (Rats A-E Mean ± SE, 75 min): 41 ± 4%
% Inhibition of Blood Pressure Elevation (Rats A-E Mean ± SE, 90 min): 42 ± 6%
% Inhibition of Blood Pressure Elevation (Rats A-E Mean ± SE, 120 min): 41 ± 5%
% Inhibition of Blood Pressure Elevation (Rats A-E Mean ± SE, 150 min): 37 ± 7%
% Inhibition of Blood Pressure Elevation (Rats A-E Mean ± SE, 180 min): 29 ± 10%
